Reference: PubChem BioAssay (NCI)
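Method: 48-hour compound exposure of cells in 96-well plates, five concentrations, linear interpolation of endpoints. TGI: concentration producing complete growth inhibition.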

Tests used:
Assay in all cases: NCI-60 cell line screen, 48 h
[1] = system: U251 CNS
[2] = system: HCT-116 colon
[3] = system: NCI-H226 lung
[4] = system: 786-0 renal
[5] = system: UACC-62 melanoma
[6] = system: A549 NSCLC
[7] = system: SK-OV-3 ovarian
[8] = system: OVCAR-8 ovarian
[9] = system: NCI-H23 lung
[10] = system: CCRF-CEM leukemia
[11] = system: UACC-257 melanoma
[12] = system: NCI-H460 lung
[13] = system: SK-MEL-28 melanoma
[14] = system: SNB-75 CNS

Compound: O=C1CC2(CCNCC2)C(=O)N1N1CCCC1
- TGI [1]: > 100 µM
- TGI [2]: > 100 µM
- TGI [3]: > 100 µM
- TGI [4]: > 100 µM
- TGI [5]: > 100 µM
- TGI [6]: > 100 µM
- TGI [7]: > 100 µM
- TGI [8]: > 100 µM
- TGI [9]: > 100 µM
- TGI [10]: > 100 µM
- TGI [11]: > 100 µM

Compound: COP1(=O)Oc2ccccc2C(=O)C(C(F)(F)F)(C(F)(F)F)O1 (centres undefined)
- TGI [1]: > 100 µM
- TGI [2]: > 100 µM
- TGI [4]: > 100 µM
- TGI [5]: > 100 µM
- TGI [6]: > 100 µM
- TGI [7]: > 100 µM
- TGI [8]: > 100 µM
- TGI [9]: > 100 µM
- TGI [10]: > 100 µM
- TGI [12]: > 100 µM
- TGI [13]: > 100 µM
- TGI [11]: > 100 µM
- TGI [14]: > 100 µM

Compound: ClC1=C(Cc2ccccc2)Cc2ccc3c(c21)CCC3
- TGI [1]: 39.3 µM
- TGI [2]: 94.9 µM
- TGI [3]: 74.1 µM
- TGI [4]: 89.1 µM
- TGI [5]: 60.3 µM
- TGI [6]: 98.2 µM
- TGI [7]: > 100 µM
- TGI [8]: > 100 µM
- TGI [9]: > 100 µM
- TGI [10]: 90.1 µM
- TGI [13]: > 100 µM
- TGI [11]: 53.8 µM

Compound: O=C(NCCO)Nc1c(C(F)(F)F)cc(-c2ccccc2)[nH]c1=O
- TGI [1]: > 100 µM
- TGI [2]: > 100 µM
- TGI [3]: > 100 µM
- TGI [4]: > 100 µM
- TGI [5]: > 100 µM
- TGI [6]: > 100 µM
- TGI [7]: > 100 µM
- TGI [8]: > 100 µM
- TGI [9]: > 100 µM
- TGI [10]: > 100 µM
- TGI [12]: > 100 µM
- TGI [13]: > 100 µM
- TGI [11]: > 100 µM

Compound: O=c1[nH]nc(Cc2ccc(Cl)cc2)n1/N=C\c1ccc(/C=N/n2c(Cc3ccc(Cl)cc3)n[nH]c2=O)cc1
- TGI [1]: 97.9 µM
- TGI [2]: > 100 µM
- TGI [3]: > 100 µM
- TGI [4]: 53.1 µM
- TGI [5]: > 100 µM
- TGI [6]: > 100 µM
- TGI [8]: > 100 µM
- TGI [9]: > 100 µM
- TGI [10]: > 100 µM
- TGI [12]: > 100 µM
- TGI [13]: > 100 µM
- TGI [11]: > 100 µM

Compound: N#CC1=C(N)OC(c2ccc([N+](=O)[O-])cc2)C1(C#N)C#N (centres undefined)
- TGI [1]: > 78.2 µM
- TGI [2]: 34.8 µM
- TGI [3]: 41.5 µM
- TGI [4]: 25 µM
- TGI [5]: 24.3 µM
- TGI [6]: > 93.3 µM
- TGI [7]: > 100 µM
- TGI [8]: 32.3 µM
- TGI [9]: 32.7 µM
- TGI [10]: 43.3 µM
- TGI [13]: 26.9 µM
- TGI [11]: 26.5 µM
- TGI [14]: 44.6 µM

Compound: Cc1[nH]c(=O)nc(NCCNCCO)c1C(=O)Nc1c2ccccc2nc2ccccc12
- TGI [1]: > 100 µM
- TGI [2]: > 100 µM
- TGI [3]: > 100 µM
- TGI [4]: > 100 µM
- TGI [5]: > 100 µM
- TGI [6]: > 100 µM
- TGI [7]: > 100 µM
- TGI [8]: > 100 µM
- TGI [9]: > 100 µM
- TGI [10]: > 100 µM
- TGI [13]: > 100 µM
- TGI [11]: > 100 µM
- TGI [14]: > 100 µM

Compound: CC(C)NCC(O)c1ccc(OCc2ccccc2)c(OCc2ccccc2)c1-c1ccccc1 (centres undefined)
- TGI [2]: 3.17 µM
- TGI [3]: 4.28 µM
- TGI [4]: 3.25 µM
- TGI [5]: 2.72 µM
- TGI [6]: 3.21 µM
- TGI [7]: 3.16 µM
- TGI [8]: 3.17 µM
- TGI [12]: 3.49 µM
- TGI [11]: 3.54 µM
- TGI [14]: 2.54 µM

Compound: CCOC(=O)c1c(-c2ccc(OC)cc2)c(C#N)c(=S)n(C2OC(CO)C(O)C(O)C2O)c1-c1ccccc1 (centres undefined)
- TGI [1]: > 100 µM
- TGI [2]: 85.3 µM
- TGI [4]: > 100 µM
- TGI [5]: > 100 µM
- TGI [6]: > 100 µM
- TGI [7]: > 100 µM
- TGI [9]: > 100 µM
- TGI [10]: > 100 µM
- TGI [12]: > 100 µM
- TGI [13]: > 100 µM
- TGI [11]: > 100 µM
- TGI [14]: > 100 µM
